Measurements published in patent US9096591B2, “Tetracyclic compounds” (Medivation Technologies, Inc., priority 2007, dated 2015).

Tests used:
Settings in all cases: percent inhibition of specific binding
[1] = molecular target: T1, human recombinant adrenergic α1D receptor (Homo sapiens, UniProt P25100); test: Adrenergic α1D radioligand binding ([3H]Prozosin); parameters: Inhibition of ligand binding, Adren. alpha1D: concentration or dose not given beside the values
T1 construct: expressed in transfected cells; host or cells: HEK-293 cells
T1 sequence (P25100 1-572): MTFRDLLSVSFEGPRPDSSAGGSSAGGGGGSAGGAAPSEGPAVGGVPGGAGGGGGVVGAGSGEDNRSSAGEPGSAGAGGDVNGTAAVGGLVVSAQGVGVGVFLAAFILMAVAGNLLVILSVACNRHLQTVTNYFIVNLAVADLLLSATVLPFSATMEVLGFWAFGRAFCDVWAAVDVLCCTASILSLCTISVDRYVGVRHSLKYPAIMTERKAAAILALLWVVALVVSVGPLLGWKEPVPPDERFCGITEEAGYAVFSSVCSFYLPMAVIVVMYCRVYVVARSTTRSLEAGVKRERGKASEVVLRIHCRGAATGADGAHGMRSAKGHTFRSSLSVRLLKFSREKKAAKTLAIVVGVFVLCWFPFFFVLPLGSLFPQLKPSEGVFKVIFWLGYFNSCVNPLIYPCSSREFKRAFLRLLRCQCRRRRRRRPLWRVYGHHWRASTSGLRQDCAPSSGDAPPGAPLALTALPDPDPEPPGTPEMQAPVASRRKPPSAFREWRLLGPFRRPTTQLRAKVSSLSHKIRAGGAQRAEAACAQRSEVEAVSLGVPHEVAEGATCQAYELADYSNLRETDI
Experimental: Compounds of invention were incubated with 0.6 nM [^3H]Prozosin for 60 minutes at 25° C. Non-specific binding was estimated in the presence of 10 μM phentolamine. Receptor proteins were filtered and washed, the filters were then counted to determine [^3H]Prozosin specifically bound. […] Biochemical assay results are presented as the percent inhibition of specific binding in Table 6.

[2] = molecular target: T2, human recombinant adrenergic α2B receptor (Homo sapiens, UniProt P18089); test: Adrenergic α2B radioligand binding ([3H]Rauwolscine); parameters: Inhibition of ligand binding, Adren. alpha2B: concentration or dose not given beside the values
T2 construct: expressed in transfected cells; host or cells: CHO-K1 cells
T2 sequence (P18089 1-450): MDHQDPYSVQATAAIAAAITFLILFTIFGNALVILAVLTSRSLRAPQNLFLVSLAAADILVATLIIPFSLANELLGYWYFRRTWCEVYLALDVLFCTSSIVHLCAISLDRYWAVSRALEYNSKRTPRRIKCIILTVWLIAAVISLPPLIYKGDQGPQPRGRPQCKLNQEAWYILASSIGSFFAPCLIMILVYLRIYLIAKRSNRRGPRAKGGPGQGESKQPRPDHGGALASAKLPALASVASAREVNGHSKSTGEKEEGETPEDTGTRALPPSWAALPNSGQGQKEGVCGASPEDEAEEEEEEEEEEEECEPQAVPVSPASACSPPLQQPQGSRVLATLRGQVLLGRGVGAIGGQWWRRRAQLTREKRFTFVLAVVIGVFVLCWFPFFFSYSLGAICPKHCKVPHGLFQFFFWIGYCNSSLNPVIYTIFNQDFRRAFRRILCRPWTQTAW
Outline: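 Incubation ran 60 minutes at 25 °C in modified Tris-HCl buffer (50 mM, pH 7.4, 12.5 mM MgCl2, 1 mM EDTA, 0.2% BSA) using CHO-K1-expressed human receptor.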

[3] = molecular target: T3, human recombinant serotonin (5-Hydroxytryptamine) 5-HT2C receptor (Homo sapiens, UniProt P28335); test: Serotonin 5-HT2C radioligand binding ([3H]Mesulergine)
T3 construct: expressed in transfected cells; host or cells: CHO-K1 cells
T3 sequence (P28335 33-458): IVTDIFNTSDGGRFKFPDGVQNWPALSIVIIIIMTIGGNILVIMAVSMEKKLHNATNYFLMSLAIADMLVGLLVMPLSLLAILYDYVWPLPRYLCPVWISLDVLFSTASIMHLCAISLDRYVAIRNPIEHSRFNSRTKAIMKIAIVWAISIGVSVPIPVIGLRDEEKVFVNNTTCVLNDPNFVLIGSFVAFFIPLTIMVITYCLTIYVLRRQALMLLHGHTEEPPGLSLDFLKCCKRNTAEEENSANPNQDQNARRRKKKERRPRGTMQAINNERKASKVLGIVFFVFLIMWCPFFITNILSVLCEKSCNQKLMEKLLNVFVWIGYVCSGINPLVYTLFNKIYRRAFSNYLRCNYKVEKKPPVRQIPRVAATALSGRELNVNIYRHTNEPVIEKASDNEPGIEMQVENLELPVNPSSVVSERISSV
Experimental: Compounds of the invention were incubated with 1 nM [^3H]Mesulergine for 60 minutes at 25° C. Non-specific binding was estimated in the presence of 1 μM Mianserin. Receptor proteins were filtered and washed, the filters were then counted to determine [^3H]Mesulergine specifically bound. […] Biochemical assay results are presented as the percent inhibition of specific binding in Table 6.

[4] = molecular target: T4, human recombinant serotonin (5-Hydroxytryptamine) 5-HT6 receptor (Homo sapiens, UniProt P50406); test: Serotonin 5-HT6 radioligand binding ([3H]LSD); parameters: Inhibition of ligand binding, Ser. 5-HT6: concentration or dose not given beside the values
T4 construct: expressed in transfected cells; host or cells: human HeLa cells
T4 sequence (P50406 whole entry): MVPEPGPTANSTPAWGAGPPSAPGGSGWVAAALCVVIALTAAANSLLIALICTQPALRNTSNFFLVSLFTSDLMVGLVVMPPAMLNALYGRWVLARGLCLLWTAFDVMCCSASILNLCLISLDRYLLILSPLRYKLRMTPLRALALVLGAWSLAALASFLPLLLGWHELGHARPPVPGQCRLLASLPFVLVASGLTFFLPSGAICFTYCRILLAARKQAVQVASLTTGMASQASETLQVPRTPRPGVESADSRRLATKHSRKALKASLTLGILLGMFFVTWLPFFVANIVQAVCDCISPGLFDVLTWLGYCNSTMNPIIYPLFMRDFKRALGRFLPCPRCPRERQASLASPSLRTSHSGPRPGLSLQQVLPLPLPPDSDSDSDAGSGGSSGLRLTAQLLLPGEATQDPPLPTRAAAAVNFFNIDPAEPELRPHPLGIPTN
Source text: Receptor proteins were filtered and washed, the filters were then counted to determine [3H]LSD specifically bound. […] Biochemical assay results are presented as the percent inhibition of specific binding in Table 6.

[5] = molecular target: T5, Serotonin (5-Hydroxytryptamine) 5-HT7 (Homo sapiens, UniProt P34969); test: Serotonin 5-HT7 radioligand binding ([3H]LSD); parameters: Inhibition of ligand binding, Ser. 5-HT7: concentration or dose not given beside the values
T5 construct: expressed in transfected cells; host or cells: CHO cells
T5 sequence (P34969 whole entry): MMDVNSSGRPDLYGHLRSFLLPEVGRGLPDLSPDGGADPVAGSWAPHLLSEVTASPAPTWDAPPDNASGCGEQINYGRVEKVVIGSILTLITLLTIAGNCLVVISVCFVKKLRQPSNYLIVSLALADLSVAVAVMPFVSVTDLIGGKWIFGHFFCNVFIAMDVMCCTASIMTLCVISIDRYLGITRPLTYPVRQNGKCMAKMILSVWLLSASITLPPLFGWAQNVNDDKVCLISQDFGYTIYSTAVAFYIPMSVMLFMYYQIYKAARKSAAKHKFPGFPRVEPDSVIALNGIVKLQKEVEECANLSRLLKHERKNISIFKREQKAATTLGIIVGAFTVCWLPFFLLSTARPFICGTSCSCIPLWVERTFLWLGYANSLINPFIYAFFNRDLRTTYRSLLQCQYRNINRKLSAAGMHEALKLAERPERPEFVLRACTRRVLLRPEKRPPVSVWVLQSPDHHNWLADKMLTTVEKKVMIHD
Experimental: Lysergic acid diethylamide (LSD) for 2 hours at 25° C. […] Receptor proteins were filtered and washed, the filters were then counted to determine [^3H]LSD specifically bound. […] Biochemical assay results are presented as the percent inhibition of specific binding in Table 6.

Cc1ccc2c(c1)c1c(n2CCc2ccc(F)cc2)CCN(C)C1 [Compound 33, 5-(4-fluorophenethyl)-2,3,4,5-tetrahydro-2,8-dimethyl-1H-pyrido[4,3-b]indole]
Inhibition of ligand binding, Adren. alpha1D [1]: 88% | Inhibition of ligand binding, Adren. alpha2B [2]: 100% | Inhibition of ligand binding, Ser. 5-HT2C [3]: 95% | Inhibition of ligand binding, Ser. 5-HT6 [4]: 100% | Inhibition of ligand binding, Ser. 5-HT7 [5]: 91%
